Reference: patent US20220387339A1, “SUPERFINE COMPOUNDS AND PRODUCTION THEREOF” (Esolate Ltd, priority 2019, published 2022)
Values after ≈ are worked out from the molar mass of the structure shown.

How the values were obtained:
[1] = Solubility of cyclodextrins in supercritical CO2 under process conditions (Example 3); settings: for solubility in supercritical CO2: experimental conditions: 40° C., 3,500 psi
[2] = Visual solubility in simulated stomach conditions (Example 5); assay type: physicochemical
Procedure: Bioavailability of the cannabinoid ultrafine nanoparticles obtained as described in Example 4 was assessed by visually evaluating the solubility of the fine nanoparticles in simulated stomach conditions. 0.5 g of NaCl was added to a 0.155 M solution of HCl in water to replicate stomach acidic conditions. 10 mg of the fine nanoparticles, 10 mg of the isolates in crystalline form, and 10 mg of the distillates were each placed in vials containing 10 ml of the acidic solution and incubated for 10 hours at 37° C. At the end of the 10-hour period, only minimal solubility of the preparations was observed. Additional 10 ml of the acidic solution were added, and the mixtures were incubated for 10 more hours at 37° C. At the end of the 20-hour period, the cannabinoid nanoparticles dissolved in the acidic solution.

[3] = Visual solubility in water before and after processing (FIGS. 3-4); assay type: physicochemical; settings: FIGS. 3 and 4
Excerpt: The crystals are insoluble in acid and in water.

[4] = Relative bioavailability test: CBD concentration in water by HPLC-UV (Example 6); assay type: physicochemical; settings: after 32 hours elapsed time, 0.45 μm filtered
Procedure: Relative bioavailability tests of the cannabinoid ultrafine nanoparticles obtained as described in Example 4 (test samples) as compared to cannabinoid isolates in water (control samples) were performed using a high performance liquid chromatography (HPLC) separator equipped with a UV detector to determine the concentration of CBD in each sample. Control samples were prepared by filtering 1 ml of each sample through a 0.45 μm filter into a 2 ml HPLC vial and 1 ml of methanol (MeOH) was added to each sample vial. HPLC mobile phase was comprised of 65% acetonitrile and 35% water. A flow rate of 1 ml per minute led to the elution of CBD after approximately 4.5 minutes.
A percentage area was measured after 32 hours elapsed time, which represents the amount of CBD in each sample relative to the background signal created by the MeOH in each sample.

[5] = isolates currently available; cited from earlier work

CC(=O)OC[C@H]1O[C@@H]2O[C@H]3[C@H](OC(C)=O)[C@@H](OC(C)=O)[C@@H](O[C@H]4[C@H](OC(C)=O)[C@@H](OC(C)=O)[C@@H](O[C@H]5[C@H](OC(C)=O)[C@@H](OC(C)=O)[C@@H](O[C@H]6[C@H](OC(C)=O)[C@@H](OC(C)=O)[C@@H](O[C@H]7[C@H](OC(C)=O)[C@@H](OC(C)=O)[C@@H](O[C@H]8[C@H](OC(C)=O)[C@@H](OC(C)=O)[C@@H](O[C@H]1[C@H](OC(C)=O)[C@H]2OC(C)=O)O[C@@H]8COC(C)=O)O[C@@H]7COC(C)=O)O[C@@H]6COC(C)=O)O[C@@H]5COC(C)=O)O[C@@H]4COC(C)=O)O[C@@H]3COC(C)=O [ABCD, β-cyclodextrin heneicosaacetate]
solubility in supercritical CO2 [1]: 1.3 wt. %

C=C(C)[C@@H]1CCC(C)=C[C@H]1c1c(O)cc(CCCCC)cc1O [CBD isolate, cannabidiol]
solubility in acidic solution after 20 hours (visual) ([2]; 10 mg in 20 ml 0.155 M HCl with NaCl, 37° C., 20 hours): complete insolubility
solubility in acid (visual) ([2]; acidic solvent resembling stomach conditions, FIGS. 3 and 5): insoluble
solubility in water (visual) [3]: insoluble
percentage area (amount of CBD relative to MeOH background signal) [4]: 0.7706%
solubility in water [5]: 0.0126 mg/mL (≈ 40.1 µM)

Cyclodextrin
solubility under the process conditions (supercritical CO2) ([1]; 40° C., 3,500 psi): insoluble

α-cyclodextrin exadeacetate [AACD]
solubility in supercritical CO2 [1]: 1.1 wt. %
